The values below come from US12319915B2, “Cytotoxic fluoropyrimidine polymers and methods of use thereof” (Wake Forest University Health Sciences, priority 2018, dated 2025).

Each structure is given as a SMILES string.

Series [1] concerns HCT-116 flank tumors. The experiment in a line: HCT-116 flank xenograft model. The conditions noted are these: 5-FU 70 mg/kg i.p. 2× per week every other week.
Description: Animal Model. […] All of the animal experiments were performed on six-to-eight-week-old female BALB/c mice.
Xenograft Model. HCT116 cells (3×10^6 cells) were suspended in ice-cold PBS and mixed 1:1 with Matrigel and subcutaneously injected into the flanks of Balb/nude mice. Tumor growth and mice health were monitored daily until the tumor reached a volume of 100-200 mm^3 (about two weeks). Tumor measurements were taken using electronic digital calipers twice a week, along with mouse weight. Tumor volume (V) was calculated as V=π/6 (L×W^2). 5-FU (70 mg/kg 2×/wk every other week) or CF10 (300 mg/kg) were dosed by intraperitoneal (i.p.) injection using a 28-gauge needle. Mice requiring removal from study due to large tumor burden or weight-loss were euthanized in accord with AVMA guidelines.
The test system of series [2] is HCT-116 cells. Description: cells. The conditions noted are these: Homo sapiens, HCT-116, 96 h, read-out: potency (cytotoxicity) to HCT-116 cells.
Excerpt: Cell Lines and Drugs. HCT-116 human CRC cells were supplied by GRCF Biorepository & Cell Center (Johns Hopkins University). HCT116 cells were infected with UBC-GFPLuc-LV by the Cell and Viral Vector Laboratory at Wake Forest School of Medicine to generate luciferase-expressing HCT116-luc cells. These cells also express GFP. All human CRC cell lines were maintained in Dulbecco's Modified Eagle Medium (DMEM; Lonza, Switzerland) supplemented with 10% fetal bovine serum (FBS; Sigma, St. Louis, Missouri). Cell lines were cultured in conditions of 37° C. and 5% CO2 and were confirmed negative for mycoplasma.
Cell Culture. Cells were seeded in 96-well plates at the appropriate density in 200 μL medium and incubated for 37° C. overnight for cell attachment. […] Compounds were serially-diluted in either water or DMSO (final DMSO percentage<1%) to a stock concentration, and an equal amount of drug was added to the exponentially growing cells for each tested concentration. All drugs were filtered in 0.22 μm filter before use.
Cell Viability. CellTiter-Glo (Promega, Wisconsin) was used to determine cell viability. Assays were performed according to the manufacturer's instructions. Cell viability was normalized and calculated as a relative percentage of the averaged vehicle control.
The conditions of series [3]: cited from earlier work.
The test system of series [4] is HCC2998. The experiment in a line: NCI60 cell line screen, HCC2998. The series is classed as cell-based. The settings on record: Homo sapiens, HCC 2998; HCC2998, NCI 60 cell line screen.
Series [5] has as its target T1, thymidylate synthase (TS) (Homo sapiens, UniProt P04818).
T1 construct: Cell lysate aliquots (400 μg of protein) were added to the reaction buffer; endogenous in cells; host or cells: HCT116 human colorectal cancer cells
The experiment in a line: Thymidylate synthase activity in lysates of treated HCT116 cells. The series is classed as cell-based. The conditions noted are these: HCT-116 cells, 100 nM. As for the experimental part:
Thymidylate Synthase Activity. TS activity assays were performed using well-established procedures. HCT116 cells were plated at a density of 1.0-1.5×10^6 cells in […] plates. Cells were grown overnight in DMEM media with 10% FBS to allow the cells to adhere and begin to grow. Drugs were then added to the medium and the cells were incubated for the indicated time (24 h or 48 h). Cells were then harvested in 25 mM Tris-HCl, pH 7.4 with Complete Protease Inhibitor Cocktail present (as per instructed, Roche), put through two freeze/thaw cycles, and vigorously vortexed. The lysates were centrifuged at 10,000×g for 10 min at 4° C. The supernatants were assayed for protein concentration and TS catalytic activity. TS catalytic assays were performed in a final volume of 200 μL containing freshly prepared 75 μM 5,10 methylene tetrahydrofolate in 0.5 M NaOH (Schircks Laboratories, Switzerland), 10 μM dUMP, 200,000 dpm of 3H-dUMP (Moravek Biochemicals), 100 μM 2-mercaptoethanol, and 25 mM KH2PO4, pH 7.4. Cell lysate aliquots (400 μg of protein) were added to the reaction buffer and lysis buffer was used to adjust the final volume. The reaction mixture was incubated at 37° C. for 30 min, then stopped by addition of 100 μL of ice-cold, 20% TCA. Stopped reactions were maintained 5 min on ice. […] Reactions were then centrifuged, and aliquots of the supernatant were read by scintillation counting.

The subject of series [6] is SW620. The experiment in a line: NCI60 cell line screen, SW620. In kind it is cell-based. The conditions noted are these: Homo sapiens, SW-620; SW620, NCI 60 cell line screen.
Series [7] has as its system HT-29. The experiment in a line: NCI60 cell line screen, HT-29. In kind it is cell-based. The settings on record: Homo sapiens; HT-29, NCI 60 cell line screen.
The subject of series [8] is HCT-116-luc orthotopic xenografts.
Excerpt: Orthotopic Colorectal Model. Protocol was followed per Tseng et al.'s previous study (Tseng W. et al., Vis Exp, 2007 (10): p. 484). A xenograft tumor was formed as described above using HCT116-luc cells. Once the tumor reached a size large enough for transplantation, mice were euthanized and tumor tissue was removed. The tumor was divided into 2-3 mm pieces and placed in PBS on ice. BALB/c mice were put under anesthesia, and the abdomen was prepped with a betadine solution. A laparotomy was performed in the abdomen and the cecum was exposed. The cecal wall was slightly damaged to allow cell invasion. A piece of tumor tissue was then attached to the outside of the cecum by a figure-8 stitch using a 9-O-nylon suture. The cecum is returned to the cavity and the abdomen wall is closed up using 6-0 coated vycryl sutures. A rectal thermometer monitored the internal temperature of the mice during surgery. Mouse recovery was monitored closely and mice were given Meloxicam every day for 3 days to alleviate pain along with normal saline to keep the mice hydrated. Tumor volume and cell progression was monitored using an IVIS live imaging system for evaluated total proton flux. […] CF10 was dosed 2×/week every week at 360 mg/kg (n=8 study 1; n=2 in study 2). All drugs, or vehicle (0.9% saline; n=8 study 1; n=6 study 2) were administered by i.p. injection in 200 μL volume.
Animal Imaging. Pierce D-Luciferin (Thermo Scientific) was injected subcutaneous using a 28-gauge needle 15 minutes before imaging. Mice were placed in an anesthesia chamber with 1.5% isoflurane and then transferred to the IVIS stage under 2% isoflurane using a nose cone placing the mice on their back. IVIS Lumina LT Series III machine was used for all mouse images. All images were analyzed at the end of the time experiment using the same Living Image software. A region of interest was placed on the mouse′ midsection and determined the total flux in that region. The region of interest remained identical for each mouse. Graphs were plotted as total flux per mouse for each week.
Statistical Analysis. All statistical analyses were conducted using SAS 9.4 using a mixed models approach. Baseline flux from IVIS imaging measurement, group, time and group-by-time interaction were included as fixed effects. The animals were included as random effects to account for the within animal correlation. Survival differences among treatment groups were determined using a log-rank test.
Histology Analysis. Tissues from select mice from all treatment groups were removed from animals after undergoing euthanasia by intra-cardiac administration of KCl solution. In some instances, mice were injected with luciferin ˜20 min prior to euthanasia and tissue extraction to permit IVIS imaging of extracted tissue. Tumors were weighed after removal and in instances where there was suspicion of possible metastases to liver, lung, or other organs tissue from these organs was removed and if luciferin was administered prior to euthanasia, these tissues were imaged using the IVIS system. All tissues were fixed in 10% neutral buffered formalin for 24 h followed by transfer to 70% ethanol. Following routine processing in xylene, tissues were sectioned at 4 μm and stained with Hematoxylin and Eosin and evaluated by light microscopy by a veterinary pathologist.
For series [9], the system named is KM-12. Description: NCI60 cell line screen, KM-12. In kind it is cell-based. The settings on record: Homo sapiens, KM12; KM-12, NCI 60 cell line screen.
The subject of series [10] is HCT-15. The experiment in a line: NCI60 cell line screen, HCT-15. The series is classed as cell-based. The settings on record: Homo sapiens; HCT-15, NCI 60 cell line screen.
Series [11] has as its system COLO205. The experiment in a line: NCI60 cell line screen, COLO205. The series is classed as cell-based. The settings on record: Homo sapiens, COLO 205; COLO205, NCI 60 cell line screen.
The subject of series [12] is HCT-116. The experiment in a line: NCI60 cell line screen, HCT-116. In kind it is cell-based. The settings on record: Homo sapiens; HCT-116, NCI 60 cell line screen.

T1 sequence (P04818 2-313 limits assumed): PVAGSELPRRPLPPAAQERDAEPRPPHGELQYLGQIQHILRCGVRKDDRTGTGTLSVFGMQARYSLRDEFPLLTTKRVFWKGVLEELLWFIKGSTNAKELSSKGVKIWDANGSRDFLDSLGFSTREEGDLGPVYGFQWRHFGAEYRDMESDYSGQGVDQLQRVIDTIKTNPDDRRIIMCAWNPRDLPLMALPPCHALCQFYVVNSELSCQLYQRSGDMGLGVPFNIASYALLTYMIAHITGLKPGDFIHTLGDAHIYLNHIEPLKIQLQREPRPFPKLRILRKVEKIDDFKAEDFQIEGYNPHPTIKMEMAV

In the case of `O=c1[nH]cc(F)c(=O)[nH]1` [5-FU, 5-fluorouracil], in series [1], the “day post-treatment by which all mice required euthanasia” value is no more than 16 days. Further, in series [1] (CF10 300 mg/kg i.p. 2×/week), the weight loss result is listed as “greater weight loss than mice in the other treatment groups”. Besides, the IC50 in series [2] was 21 µM. For the same compound, the half-life in series [3] is roughly 15 min. The GI50 in [4] stood at 1.51 µM; in [6], 28.2 µM; in series [7], 6.76 µM; in series [9], 8.71 µM; in [10] it was 5.62 µM; in series [11], 6.92 µM. The compound also had a GI50 in series [12] of 4.07 µM. Further, the TS enzymatic activity result in [5] (24 h) was “reduced TS activity”; in series [5] (48 h), roughly 75 % control values. Further, the primary tumor weight in series [8] (5-FU average at week 5, CF10 one mouse at week 8) stood at 1.0 g. Also, the “mice with putative metastatic tissue” value in [8] (autopsy at week 5) is 2/4. In addition, the tolerability entry in series [8] (mouse, in vivo, ip, 100 mg/kg) was “toxic”. Moreover, the effect on survival result in series [8] (orthotopic HCT-116-luc) is reported as “no significant effect on survival”. For the same compound, the median survival in series [8] (orthotopic HCT-116-luc, i.p.) was 31 days. For the same compound, the “tumor growth (rate of change in flux, IVIS)” value in series [8] (orthotopic HCT-116-luc, i.p.) is on record as “decrease tumor growth relative to control”.

A word on the half-life: it is the time in which the quantity being followed falls by half. As a reminder, the GI50 is the concentration giving 50% growth inhibition. A high value points to less potent growth inhibition.
